Patent US20240307409A1, “ARGININE METHYLTRANSFERASE INHIBITOR AND USE THEREOF” (Cytosinlab Therapeutics Co., Ltd., priority 2021, published 2024)

Experiments:
PRMT1 = PRMT1 (Homo sapiens, UniProt Q99873); assay: PRMT1 enzyme activity test; assay type: biochemical; settings: 0.5 nM PRMT1, 3H-SAM, peptide
How it was run: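 Radiometric methylation assay: 0.5 nM PRMT1 preincubated 15 min at room temperature with compound (10-point 3-fold series, 1% DMSO) in pH 8.0 Tris buffer with Tween-20 and DTT. 0.25 uM ³H-SAM and 0.1 uM biotinylated peptide then reacted 120 min. Product captured on streptavidin FlashPlate and counted; IC50 from four-parameter fit of % inhibition.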

Toledo cells = assay: Toledo cell proliferation inhibition assay; assay type: cell-based; settings: Homo sapiens, Toledo, 144 h; six-day assay, CellTiter-Glo
How it was run: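 Toledo cells seeded at 2000 cells/well in RPMI 1640 + 10% FBS and incubated with compound for six days at 37° C, 5% CO2. Viability was then read by CellTiter-Glo luminescence after 30 min orbital mixing.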

MMA in RKO cells = assay: RKO In Cell Western assay (MMA primary antibody); assay type: cell-based; settings: Homo sapiens, 72 hours, read-out: RKO ICW_EC30
Experimental: RKO was seeded at a concentration of 20,000 cells/ml into a polylysine-coated 96-well plate (Corning #3599), with 2,000 cells per well and 100 μL of culture mediumper well. 500 nL of compound was added to the 96-well plate. 3) The 96-well plate was incubated in a 37° C., 5% CO2 incubator for 72 hours. After three days, the 96-well plate was taken from the incubator, 100 μL of 8% paraformaldehyde solution was added to each well, and the plate was placed at room temperature for 15 min. After 15 min, the liquid in the plate was shaken out and the plate was washed three times with phosphate buffer (1*PBS). The liquid in the plate was shaken out and 200 μL of membrane-breaking buffer (0.1% (v/v) Tween-20 in PBS) was added and the plate was incubated on a shaker for 30 min. After half an hour, the liquid in the plate was shaken out, and blocking buffer was added and the plate was incubated for two hours at room temperature with shaking. After that, the liquid in the plate was shaken off, and the blocking solution containing primary antibody (MMA primary antibody, CST #8711S, 1:1000 v/v) was added to the 96-well plate and the plate was incubated at 4° C. overnight with shaking. The next day, the plate was washed three times with washing solution (0.05% (v/v) Tween-20 in PBS), and a blocking solution containing secondary antibody (goat anti-rabbit IgG (H+L) Invitrogen #31460, 1:10,000 v/v) was added and the plate was incubated for two hours at room temperature. Afterwards, the 96-well plate was washed four times with washing solution. The TMB mixture was added to the 96-well plate and then the plate was incubated for 15 minutes at room temperature with shaking. After that, the reaction terminating solution was added, and the value was read at OD450 nm using an microplate reader. The plate was washed three times with washing solution, and 50 μL of janusgreen staining solution was added, and the plate was incubated for 15 minutes at room temperature with shaking. The reaction was washed ten times with water until no color residue was left. 200 μL of 0.5 M hydrochloric acid solution was added to each well and the plate was incubated for 10 min at room temperature. The value was read at OD595 nm using Flexstation.
Firstly, the ratio OD450/OD595 was calculated for each well
Each plate had six DMSO negative control groups (ZPE) and six 10 μM positive control groups (HPE), and the average of the control group ratios was used to determine the percentage of activation for each test well. The compounds to be tested were triple diluted with DMSO for a total of 8 concentration points with a starting concentration of 5 μM. The equation for calculating the activation percentage of each test well was: […]

PRMT1, sequence (Q99873 whole entry): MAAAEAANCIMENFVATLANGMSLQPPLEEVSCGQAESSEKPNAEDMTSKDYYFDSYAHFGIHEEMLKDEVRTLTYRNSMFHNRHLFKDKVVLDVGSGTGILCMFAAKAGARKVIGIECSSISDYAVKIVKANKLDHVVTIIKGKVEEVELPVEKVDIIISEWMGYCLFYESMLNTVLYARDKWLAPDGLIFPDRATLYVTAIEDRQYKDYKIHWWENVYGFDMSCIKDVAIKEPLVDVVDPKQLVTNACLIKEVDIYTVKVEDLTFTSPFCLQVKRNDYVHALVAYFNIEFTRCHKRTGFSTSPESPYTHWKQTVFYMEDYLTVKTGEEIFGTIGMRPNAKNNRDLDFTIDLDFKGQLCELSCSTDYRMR

Structure (SMILES) | IC50 (PRMT1) | IC50 (Toledo cells) | EC30 (MMA in RKO cells)
CNCCN(C)Cc1cc(F)ccc1C1CCc2cc(F)c(F)cc2CC1 [P009] | < 50 nM | < 1000 nM | 250 to 2500 nM
CNCCN(C)Cc1ccccc1[C@H]1CC[C@@H](OC(C)C)CC1 [P057] | < 50 nM | < 1000 nM | 250 to 2500 nM
CNCCN(C)Cc1ncccc1C1CCN(c2cccc(C(C)(C)C)c2)CC1 [P044] | < 50 nM | < 1000 nM | 250 to 2500 nM
CCC1CCC(c2ccccc2CN(C)CCNC)CC1 (stereo not drawn) [P015] | < 50 nM | < 1000 nM | 250 to 2500 nM
CC[C@H]1CC[C@@H](c2ccccc2CN(C)CCNC)CC1 [P014] | < 50 nM | < 1000 nM | 250 to 2500 nM
CNCCN(C)Cc1cc(F)ccc1[C@H]1CC[C@H](c2cccc(C)c2)CC1 [P005] | < 50 nM | < 1000 nM | 250 to 2500 nM
CNCCN(C)Cc1ccccc1[C@H]1CC[C@]2(CCCOC2)CC1 [P052] | < 50 nM | < 1000 nM | 250 to 2500 nM
CNCCN(C)Cc1ccccc1[C@H]1CC[C@H](OC(C)C)CC1 [P056] | < 50 nM | < 1000 nM | 250 to 2500 nM
CNCCN(C)Cc1ccc(F)cc1C1CCN(c2cccc(C)c2)CC1 [P021] | < 50 nM | < 1000 nM | < 250 nM
CNCCN(C)Cc1ncccc1C1CCN(CCc2ccccc2)CC1 [P074] | < 50 nM | < 1000 nM | 250 to 2500 nM
CNCCN(C)Cc1ccccc1C1CCN(c2ccc(C(F)(F)F)cc2)CC1 [P069] | < 50 nM | < 1000 nM | 250 to 2500 nM
CNCCN(C)Cc1ncccc1C1CCN(c2cccc(C(F)F)c2)CC1 [P078] | < 50 nM | < 1000 nM | < 250 nM
CNCCN(C)Cc1ncccc1C1CCN(c2ccccc2C)CC1 [P095] | < 50 nM | < 1000 nM | < 250 nM
CNCCN(C)Cc1ccc(F)cc1C1CCc2cc(F)cc(F)c2CC1 (stereo not drawn) [P008] | < 50 nM | < 1000 nM | 250 to 2500 nM
CNCCN(C)Cc1ccc(C)nc1C1CCN(c2cccc(C)c2)CC1 [P081, N^1,N^2-dimethyl-N1-((6-methyl-2-(1-(m-tolyl)piperidin-4-yl)pyridin-3-yl)methyl)ethane-1,2-diamine] | < 50 nM | < 1000 nM | < 250 nM
CNCCN(C)Cc1ncccc1C1CCc2ccccc2CC1 [P075] | < 50 nM | < 1000 nM | 250 to 2500 nM
CNCCN(C)Cc1ccccc1C1CCN(c2cccc(C)c2)CC1 [P022] | < 50 nM | < 1000 nM | < 250 nM
CNCCN(C)Cc1ccccc1C1CCC2(CC1)CC(C)(C)CO2 (stereo not drawn) [P039] | < 50 nM | < 1000 nM | 250 to 2500 nM
CNCCN(C)Cc1ccc(C(C)O)cc1C1CCN(c2cccc(C)c2)CC1 (stereo not drawn) [P083] | < 50 nM | < 1000 nM | < 250 nM
CNCCN(C)Cc1ccc(F)cc1[C@H]1CC[C@H](c2cccc(C)c2)CC1 [P003] | < 50 nM | < 1000 nM | < 250 nM
CNCCN(C)Cc1ccccc1[C@H]1CC[C@@]2(CCCCO2)CC1 [P050] | < 50 nM | < 1000 nM | 250 to 2500 nM
CNCCN(C)Cc1ncccc1C1CCN(c2cc(C)cc(C)c2)CC1 [P079] | < 50 nM | < 1000 nM | < 250 nM

Further lines, with some results ahead:

IC50 (PRMT1) | Structure (SMILES) | IC50 (Toledo cells) | EC30 (MMA in RKO cells)
< 50 nM | CNCCN(C)Cc1ncccc1N1CCC(Oc2cc(F)cc(C(F)(F)F)c2)CC1 [P137] | < 1000 nM | 250 to 2500 nM
< 50 nM | CNCCN(C)Cc1ncccc1C1CCN(c2ccnc(N3CCCC3)n2)CC1 [P251] | < 1000 nM | 250 to 2500 nM
< 50 nM | CNCCN(C)Cc1ncccc1N1CCc2ccc(C#N)cc2CC1 [P225] | < 1000 nM | < 250 nM
50 to 500 nM | CNCCN(C)Cc1ncccc1N1CCC(Oc2cc(C(F)(F)F)cc(C(F)(F)F)c2)CC1 [P122] | < 1000 nM | > 2500 nM
< 50 nM | CNCCN(C)Cc1ncccc1C1CCN(c2ccc(C#N)c(C)c2)CC1 [P187] | < 1000 nM | < 250 nM
< 50 nM | CNCCN(C)Cc1ncccc1N1CCC(COc2ccc(C(F)(F)F)cc2)CC1 [P130] | < 1000 nM | 250 to 2500 nM
< 50 nM | CNCCN(C)Cc1cc(F)ccc1C1CCN(S(=O)(=O)c2ccccc2[N+](=O)[O-])CC1 [P325] | < 1000 nM | 250 to 2500 nM
< 50 nM | CNCCN(C)Cc1ncccc1N1CCC(Oc2cccc(C)c2)CC1 [P171] | < 1000 nM | 250 to 2500 nM
< 50 nM | CNCCN(C)Cc1ncccc1C1CCN(c2nccc(N3CCCC3)n2)CC1 [P252] | < 1000 nM | 250 to 2500 nM
< 50 nM | CNCCN(C)Cc1ncccc1C1CCN(c2ncc3ccccc3n2)CC1 [P250] | < 1000 nM | 250 to 2500 nM
< 50 nM | CNCCN(C)Cc1ncccc1C1CCN(c2ccc(C#N)cc2)CC1 [P202] | < 1000 nM | 250 to 2500 nM
< 50 nM | CNCCN(C)Cc1ncccc1C1CCN(c2nc(N(C)C)nc3ccccc23)CC1 [P240] | < 1000 nM | 250 to 2500 nM
< 50 nM | CNCCN(C)Cc1ncccc1N1CCC(Oc2cccc(C(F)F)c2)CC1 [P147] | < 1000 nM | 250 to 2500 nM
< 50 nM | CNCCN(C)Cc1ncccc1C1CCN(c2ccccc2OC)CC1 [P170] | < 1000 nM | 250 to 2500 nM
< 50 nM | CNCCN(C)Cc1ccc(N)nc1C1CCc2cc(F)c(F)cc2CC1 [P198] | < 1000 nM | < 250 nM
< 50 nM | CNCCN(C)Cc1ncccc1N1CCc2nc(SC)nc(C)c2CC1 [P323] | < 1000 nM | > 2500 nM
< 50 nM | CNCCN(C)Cc1ccc(N)nc1C1CCN(c2cccc(C)c2)CC1 [P226, N^1-((6-amino-2-(1-(m-tolyl)piperidin-4-yl)pyridin-3-yl)methyl)-N^1,N^2-dimethylethane-1,2-diamine] | < 1000 nM | < 250 nM
< 50 nM | CNCCN(C)Cc1ncccc1N1CCC(C)(COc2ccccc2)CC1 [P149] | < 1000 nM | 250 to 2500 nM
50 to 500 nM | CCOCC1(Oc2cccc(C(F)(F)F)c2)CCN(c2cccnc2CN(C)CCNC)CC1 [P184] | < 1000 nM | > 2500 nM
50 to 500 nM | CCOCC1(COCC)CCC(c2cnccc2CN(C)CCNC)CC1 [P206] | 1000 to 5000 nM | 250 to 2500 nM
< 50 nM | CNCCN(C)Cc1ccc2[nH]ncc2c1C1CCc2cc(F)c(F)cc2CC1 [P167, N1-((4-(2,3-difluoro-6,7,8,9-tetrahydro-5H-benzo[7]cyclopenten-7-yl)-1H-indazol-5-yl)methyl)-N1,N2-dimethylethane-1,2-diamine] | < 1000 nM | < 250 nM
< 50 nM | CNCCN(C)Cc1ccc(-c2cn[nH]c2)cc1C1CCN(c2cccc(C)c2)CC1 [P153] | < 1000 nM | < 250 nM
< 50 nM | CNCCN(C)Cc1ncccc1N1CCC(Oc2cc(C)cc(C)c2)CC1 [P148] | < 1000 nM | 250 to 2500 nM
< 50 nM | CCOCC1(COCC)CCC(c2cc3c(cc2CN(C)CCNC)CNC3=O)CC1 [P258] | < 1000 nM | < 250 nM
< 50 nM | CCOCC1(COCC)CCC(c2ncccc2CN(C)CCNC)CC1 [P208] | < 1000 nM | 250 to 2500 nM
< 50 nM | CNCCN(C)Cc1ncccc1N1CCC(Oc2cccc(F)c2)CC1 [P179] | < 1000 nM | 250 to 2500 nM
< 50 nM | CNCCN(C)Cc1ncccc1N1CCC(Oc2cccc(C(F)(F)F)c2)CC1 [P141] | < 1000 nM | 250 to 2500 nM
< 50 nM | CNCCN(C)Cc1ncccc1N1CCc2ccc(N)cc2CC1 [P243] | < 1000 nM | 250 to 2500 nM
